{"source": "patent US20240150339A1", "about": "“Compounds and Their Use as PDE4 Activators” (Mironid Limited, priority 2021, published 2024)"}
{"system": "m-IMCD3 cells", "assay": "Inhibition of PGE2-stimulated in vitro cyst formation in 3D culture of m-IMCD3 cells", "format": "cell-based, mouse", "conditions": "Mus musculus, mIMCD3, 144 h; 10 μM test compound; mean cyst area (%) compared to 100% for (DMSO + PGE2) and 0% for DMSO control; 100 nM PGE2; 6 days; read-out: % Cyst area after incubation with 10 μM test compound", "method": "HEK 293 and MDCK cells (Public Health England, Cell Culture Collections) were maintained in Dulbecco's Modified Eagle's Medium (DMEM) supplemented with 10% (v/v) fetal bovine serum (FBS) (Seralab), 2 mM L-glutamine and 100 U/ml penicillin streptomycin cocktail (ThermoFisher); termed complete media. Clonal HEK 293 cell lines were maintained in complete media supplemented with 0.6 mg/mL G418 (Enzo Life Sciences). Mouse inner medullary collecting duct (m-IMCD3) cells [American Type Culture Collection (ATCC)] were maintained in media consisting of DMEM/Hams F-12 50/50 Mix (DMEM F12; Corning) supplemented with penicillin streptomycin cocktail (100 U/ml) and FBS (10% v/v) (DMEM F12-10% FBS).\nThe mouse Inner Medullary Collecting Duct cell line (m-IMCD3) spontaneously forms cystic spheroids in 3D culture with a Type 1 collagen/Matrigel extracellular matrix. This process can be stimulated with agents which raise intracellular cAMP, such as PGE2, and is used as an in vitro model for the formation of cystic structures in the kidneys of patients with ADPKD.\nRat Collagen I (Fisher Scientific) is prepared on ice by neutralising with 1M NaOH and diluting with a 2×volume of DMEM/F12+10% FBS for coating plate (coating mix) and a 2.2 volume of DMEM/F12+10% FBS for cell plating (plating mix). This is mixed 1:1.1 with ice cold Matrigel (Corning) for coating plates (coating mix), and 1:0.95 with Matrigel for cell plating (plating mix).\nThe assay is conducted in the wells of a 96-well plate culture dish using a total volume of 130 μl of collagen/Matrigel/DMEM F12-10% FBS suspension in growth media for each matrix plug per individual well. Initially, 30 μl of collagen/Matrigel/DMEM F12-10% FBS (coating mix) is added into the well of a 96 well plate and the collagen is set to a gel by incubating at 37° C. for at least 15 minutes. A second layer of 100 μl collagen/Matrigel suspension (plating mix) containing m-IMCD3 cells (2.75×10^6 m-IMCD3 cells per 96-well plate) is layered over the coating mix and the collagen/Matrigel/cell mix again set to a gel by incubating at 37° C. Cell cultures are maintained at 37° C. in an atmosphere of 5% CO2, 95% air.\nBetween 18 and 24h after plating, test compound(s) as DMSO stock solutions [0.1% (v/v) final DMSO concentration] and PGE2 (100 nM final concentration) in DMEM F12-10% FBS are added in quadruplicate wells per condition. Media, togetherwith the test compound and PGE2 are replenished after 2 or 3 days. After 6 days of culture z stack images of the wells are captured using the Nikon Eclipse Ti2-E microscope. Nikon General Analysis software is used to measure the following parameters in each well: the mean cyst area, the number of cysts, and the total cyst area.\nPDE4 long form activators inhibited in vitro cyst formation in m-IMCD3 cells. Data are shown in FIG. 2 and Table 5 as mean cyst area (%), compared to 100% for (DMSO+PGE2) and 0% for DMSO control.", "units": {"activity at 10 µM": "%"}}
{"smiles": "O=C(N[C@H]1CCOc2ccccc21)c1ccc2nc([C@H]3CCCNC3)sc2c1", "note": "(single isomer, unassigned) [Example 176]", "activity at 10 µM": 1}
{"smiles": "Cc1ncccc1-c1nc2ccc(C(=O)NCc3ccc(F)cc3)cc2s1", "note": "[Example 2, N-(4-fluorobenzyl)-2-(2-methylpyridin-3-yl)benzo[d]thiazole-6-carboxamide]", "activity at 10 µM": -9}
{"smiles": "COc1ccc(CNC(=O)c2ccc3nc(-c4cccnc4C)sc3c2)cc1", "note": "[Example 3, N-(4-methoxybenzyl)-2-(2-methylpyridin-3-yl)benzo[d]thiazole-6-carboxamide]", "activity at 10 µM": 23}
{"smiles": "Cc1ncccc1-c1nc2ccc(C(=O)NCc3cccc(F)c3)cc2s1", "note": "[Example 4, N-(3-fluorobenzyl)-2-(2-methylpyridin-3-yl)benzo[d]thiazole-6-carboxamide]", "activity at 10 µM": 6}
{"smiles": "Cc1ncccc1-c1nc2ccc(C(=O)N[C@H]3CCc4ccccc43)cc2s1", "note": "[Example 5, (S)-N-(2,3-dihydro-1H-inden-1-yl)-2-(2-methylpyridin-3-yl)benzo[d]thiazole-6-carboxamide]", "activity at 10 µM": 1}
{"smiles": "CC(C)c1ccc(-c2nc3ccc(C(=O)N[C@H]4CCOc5ccccc54)cc3s2)cn1", "note": "[Example 28, (S)-N-(chroman-4-yl)-2-(6-isopropylpyridin-3-yl)benzo[d]thiazole-6-carboxamide]", "activity at 10 µM": 26}
{"smiles": "CCc1ccc(-c2nc3ccc(C(=O)N[C@H]4CCOc5ccccc54)cc3s2)cn1", "note": "[Example 29, (S)-N-(chroman-4-yl)-2-(6-ethylpyridin-3-yl)benzo[d]thiazole-6-carboxamide]", "activity at 10 µM": 22}
{"smiles": "Cc1cncc(-c2nc3ccc(C(=O)NCc4ccccc4)cc3s2)c1", "note": "[Example 30, N-benzyl-2-(5-methylpyridin-3-yl)benzo[d]thiazole-6-carboxamide]", "activity at 10 µM": 21}
{"smiles": "Cc1cncc(-c2nc3ccc(C(=O)NCc4cccc(Cl)c4)cc3s2)c1", "note": "[Example 34, N-[(3-chlorophenyl)methyl]-2-(5-methylpyridin-3-yl)benzo[d]thiazole-6-carboxamide]", "activity at 10 µM": 26}
{"smiles": "COc1cccc(CNC(=O)c2ccc3nc(-c4cncc(C)c4)sc3c2)c1", "note": "[Example 36, N-(3-methoxybenzyl)-2-(5-methylpyridin-3-yl)benzo[d]thiazole-6-carboxamide]", "activity at 10 µM": 30}
{"smiles": "Cc1ccnc(C)c1-c1nc2ccc(C(=O)N[C@H]3CCOc4ccccc43)cc2s1", "note": "[Example 52, (S)-N-(chroman-4-yl)-2-(2,4-dimethylpyridin-3-yl)benzo[d]thiazole-6-carboxamide]", "activity at 10 µM": 24}
{"smiles": "O=C(N[C@H]1CCOc2ccccc21)c1ccc2nc(N3CCOCC3)sc2c1", "note": "[Example 69, (S)-N-(chroman-4-yl)-2-morpholinobenzo[d]thiazole-6-carboxamide]", "activity at 10 µM": 20}
{"smiles": "COC1CCN(c2nc3ccc(C(=O)N[C@H]4CCOc5ccccc54)cc3s2)CC1", "note": "[Example 70, (S)-N-(chroman-4-yl)-2-(4-methoxypiperidin-1-yl)benzo[d]thiazole-6-carboxamide]", "activity at 10 µM": -18}
{"smiles": "CN1CCN(c2nc3ccc(C(=O)N[C@H]4CCOc5ccccc54)cc3s2)CC1", "note": "[Example 71, (S)-N-(chroman-4-yl)-2-(4-methylpiperazin-1-yl)benzo[d]thiazole-6-carboxamide]", "activity at 10 µM": -1}
{"smiles": "CCN1CCN(c2nc3ccc(C(=O)N[C@@H]4CCOc5ccccc54)cc3s2)CC1", "note": "[Example 73, (R)-N-(chroman-4-yl)-2-(4-ethylpiperazin-1-yl)benzo[d]thiazole-6-carboxamide]", "activity at 10 µM": 26}
{"smiles": "CC(C)N1CCN(c2nc3ccc(C(=O)N[C@H]4CCOc5ccccc54)cc3s2)CC1", "note": "[Example 74, (S)-N-(chroman-4-yl)-2-(4-isopropylpiperazin-1-yl)benzo[d]thiazole-6-carboxamide]", "activity at 10 µM": 8}
{"smiles": "CC(C)(C)N1CCN(c2nc3ccc(C(=O)N[C@H]4CCOc5ccccc54)cc3s2)CC1", "note": "[Example 75, (S)-2-(4-(tert-butyl)piperazin-1-yl)-N-(chroman-4-yl)benzo[d]thiazole-6-carboxamide]", "activity at 10 µM": -1}
{"smiles": "O=C(N[C@H]1CCOc2ccccc21)c1ccc2nc(N3C[C@H]4C[C@@H]3CN4)sc2c1", "note": "[Example 78, 2-((1R,4R)-2,5-diazabicyclo[2.2.1]heptan-2-yl)-N-((S)-chroman-4-yl)benzo[d]thiazole-6-carboxamide]", "activity at 10 µM": 24}
{"smiles": "CCN1CCN(c2nc3ccc(C(=O)NCc4ccc(F)cc4)cc3s2)CC1", "note": "[Example 80, 2-(4-ethylpiperazin-1-yl)-N-(4-fluorobenzyl)benzo[d]thiazole-6-carboxamide]", "activity at 10 µM": 26}
{"smiles": "CCN1CCN(c2nc3ccc(C(=O)NC4CCCC4)cc3s2)CC1", "note": "[Example 81, N-cyclopentyl-2-(4-ethylpiperazin-1-yl)benzo[d]thiazole-6-carboxamide]", "activity at 10 µM": 7}
{"smiles": "CCN1CCN(c2nc3ccc(C(=O)NC(C)C)cc3s2)CC1", "note": "[Example 82, 2-(4-ethylpiperazin-1-yl)-N-isopropylbenzo[d]thiazole-6-carboxamide]", "activity at 10 µM": 6}
{"smiles": "O=C(N[C@H]1CCOc2c(F)cccc21)c1ccc2nc(N3CCNCC3)sc2c1", "note": "[Example 85, (S)-N-(8-fluorochroman-4-yl)-2-(piperazin-1-yl)benzo[d]thiazole-6-carboxamide]", "activity at 10 µM": -12}
{"smiles": "O=C(N[C@@H]1CCOc2cc(F)ccc21)c1ccc2nc(N3CCNCC3)sc2c1", "note": "[Example 88, (R)-N-(7-fluorochroman-4-yl)-2-(piperazin-1-yl)benzo[d]thiazole-6-carboxamide]", "activity at 10 µM": 22}
{"smiles": "COc1ccc2c(c1)OCC[C@H]2NC(=O)c1ccc2nc(N3CCNCC3)sc2c1", "note": "[Example 93, (R)-N-(7-methoxychroman-4-yl)-2-(piperazin-1-yl)benzo[d]thiazole-6-carboxamide]", "activity at 10 µM": 9}
{"smiles": "O=C(N[C@H]1CCc2ccccc21)c1ccc2nc(N3CCNCC3)sc2c1", "note": "[Example 96, (S)-N-(2,3-dihydro-1H-inden-1-yl)-2-(piperazin-1-yl)benzo[d]thiazole-6-carboxamide]", "activity at 10 µM": 2}
{"smiles": "O=C(N[C@H]1CCc2cccc(F)c21)c1ccc2nc(N3CCNCC3)sc2c1", "note": "[Example 98, (S)-N-(7-fluoro-2,3-dihydro-1H-inden-1-yl)-2-(piperazin-1-yl)benzo[d]thiazole-6-carboxamide]", "activity at 10 µM": 27}
{"smiles": "O=C(N[C@@H]1CCc2c(F)cccc21)c1ccc2nc(N3CCNCC3)sc2c1", "note": "[Example 104, (R)-N-(4-fluoro-2,3-dihydro-1H-inden-1-yl)-2-(piperazin-1-yl)benzo[d]thiazole-6-carboxamide]", "activity at 10 µM": 30}
{"smiles": "COc1ccc2c(c1)[C@H](NC(=O)c1ccc3nc(N4CCNCC4)sc3c1)CC2", "note": "[Example 107, (R)-N-(6-methoxy-2,3-dihydro-1H-inden-1-yl)-2-(piperazin-1-yl)benzo[d]thiazole-6-carboxamide]", "activity at 10 µM": 17}
{"smiles": "COc1ccc2c(c1)CC[C@@H]2NC(=O)c1ccc2nc(N3CCNCC3)sc2c1", "note": "[Example 108, (S)-N-(5-methoxy-2,3-dihydro-1H-inden-1-yl)-2-(piperazin-1-yl)benzo[d]thiazole-6-carboxamide]", "activity at 10 µM": 22}
{"smiles": "O=C(N[C@H]1CCOc2ccccc21)c1ccc2nc(N3CCN(CCO)CC3)sc2c1", "note": "[Example 120, (S)-N-(chroman-4-yl)-2-(4-(2-hydroxyethyl)piperazin-1-yl)benzo[d]thiazole-6-carboxamide]", "activity at 10 µM": -5}
